This passage reports IC50 results from patent publication US9771378B2 (Denali Therapeutics, Inc., priority 2014, dated 2017).

In general, IC50 refers to the concentration that inhibits the measured activity by half.

The subject of the test is Aβ42 (human neuroglioma H4 cells expressing human wild type APP751). The test is described as follows: In vitro cell screening assay with sandwich ELISA quantification of Aβ42 peptide. The format is cell-based. Conditions: H4 cells stably expressing human wild type APP751; Pro293 chemically defined medium; compounds 0.003-10 μM; incubated overnight (16-18 h); supernatant Aβ42 by sandwich ELISA; normalized to DMSO and DAPT; read-out: Aβ42 H4 Prot Fre IC50. The method in brief:
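Aβ42 in supernatants was quantified by sandwich ELISA with C-terminal-specific capture and 4G8-HRP detection, absorbance at 450 nm. Stable APP751-expressing human H4 cells received compound at 0.003-10 μM (0.33% DMSO) overnight (16-18 h). IC50 was derived from percent-of-DMSO-control data by nonlinear variable-slope fit.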
On the technique in general: In an ELISA, binding on a coated surface is turned into a signal by an enzyme label.
As to `COc1cc(Nc2ncc3c(n2)N2CCC(F)(F)C2CO3)cnc1-n1cnc(C)c1` (single isomer, unassigned; (-)) [Example 305B, (−)-7,7-difluoro-N-(5-methoxy-6-(4-methyl-1H-imidazol-1-yl)pyridin-3-yl)-6a, 7,8,9-tetrahydro-6H-pyrimido [5,4-b] pyrrolo [1,2-d] [1, 4] oxazin-2-amine], the IC50 came to 582 nM.
The same measure for `COc1cc(Nc2ncc3c(n2)N(C)[C@H](c2ccccc2)CO3)ccc1-c1ccnc(C)c1` [Example 22B, (R)—N-(3-methoxy-4-(2-methylpyridin-4-yl)phenyl)-8-methyl-7-phenyl-7,8-dihydro-6H-pyrimido[5,4-b][1,4]oxazin-2-amine]: 168 nM; for `COc1nc(Nc2ncc3c(n2)N(C)C(c2cc(F)cc(F)c2)CO3)ccc1-c1ccnc(C)n1` (single isomer, unassigned; (+)) [Example 183A]: above 3000 nM.
With `COc1cc(Nc2ncc3c(n2)N(C)C(c2cc(F)cc(F)c2)CO3)cnc1-n1cnc(C#N)c1` (single isomer, unassigned; (-)) [Example 211B, (−)-1-(5-((7-(3,5-difluorophenyl)-8-methyl-7,8-dihydro-6H-pyrimido [5,4-b] [1, 4]oxazin-2-yl)amino)-3-methoxypyridin-2-yl)-1H-imidazole-4-carbonitrile] the figure was above 3000 nM; with `COc1cc(Nc2ncc3c(n2)N(C)C2(CO3)CC(F)(F)C2)ccc1-n1cnc(C)c1` [Example 276], 56 nM.
`COc1nc(Nc2ncc3c(n2)N(C)C(C)CO3)ccc1-c1cnn(C)c1` (racemic) [Example 195]: the IC50 was above 3000 nM.
Turning to `COc1cc(Nc2ncc3c(n2)N(C)C(CC(F)(F)F)CO3)cnc1-n1cnc(C)c1` (single isomer, unassigned; (+)) [Example 238B], the IC50 was 66 nM.
The same measure for `COc1cc(Nc2ncc3c(n2)N(C)C(C2CCC(F)(F)CC2)CO3)cnc1-c1cnn(C)c1` (single isomer, unassigned; (-)) [Example 231B]: above 3000 nM.
For the compound `COc1cc(Nc2ncc3c(n2)N(C)C(C)CO3)ccc1-n1cnc(Cl)c1` (single isomer, unassigned; (+)) [Example 202B], the IC50 worked out at 63 nM.
`CN1c2nc(Nc3ccc(C#N)cc3)ncc2OCC1C(F)(F)F` (single isomer, unassigned; (-)) [Example 226B, (−)-4-((8-methyl-7-(trifluoromethyl)-7,8-dihydro-6H-pyrimido [5,4-b] [1, 4]oxazin-2-yl)amino) benzonitrile]: the IC50 is above 3000 nM.
Consider `Cc1cn(-c2ccc(Nc3ncc4c(n3)N(C)C(c3ccc(F)cc3C(F)(F)F)CO4)cc2F)cn1` (single isomer, unassigned; (+)) [Example 99A], for which the IC50 came out at 206 nM.
For the compound `COc1cc(Nc2ncc3c(n2)N(C)C(C2CC(F)(F)C2)CO3)ccc1-n1cnc(C)c1` (single isomer, unassigned; (-)) [Example 212A], the IC50 is 348 nM.
With `COc1cc(Nc2ncc3c(n2)N(C)C(c2ccc(Cl)cc2Cl)CO3)ccc1-n1cnc(C)c1` (single isomer, unassigned; (-)) [Example 95A], the IC50 worked out at 116 nM.
For the compound `COc1cc(Nc2ncc3c(n2)N(C)C(c2ccccc2OC(F)(F)F)CO3)ccc1-c1ccnc(C)c1` (single isomer, unassigned; (-)) [Example 62A], the IC50 worked out at 339 nM.
As to `COc1cc(Nc2ncc3c(n2)N(C)C(C2CCC(F)(F)CC2)CO3)cnc1-n1cnc(C)c1` (single isomer, unassigned; (+)) [Example 221A], the IC50 was determined as 24 nM.
The same measure for `COc1ccc(C2COc3cnc(Nc4cnc(-n5cnc(C)c5)c(OC)c4)nc3N2C)c(C)c1` (single isomer, unassigned; (-)) [Example 215B]: 96 nM; for `COc1cc(Nc2ncc3c(n2)N(C)C(CC(F)(F)F)CO3)ccc1-n1cnc(C)c1` (single isomer, unassigned; (-)) [Example 172A]: 207 nM; for `Cc1cn(-c2ccc(Nc3ncc4c(n3)N(C)C(Cc3ccccc3)CO4)cc2F)cn1` (single isomer, unassigned; (-)) [Example 59B]: 452 nM.
With `Cc1cn(-c2ccc(Nc3ncc4c(n3)N(C)C(C)CO4)cc2C(F)F)cn1` (single isomer, unassigned; (+)) [Example 214A], the IC50 was above 3000 nM.
Take `Cc1cn(-c2ccc(Nc3ncc4c(n3)N(C)[C@@H](CO)CO4)cc2F)cn1` [Example 170, (S)-(2-((3-fluoro-4-(4-methyl-1H-imidazol-1-yl)phenyl)amino)-8-methyl-7,8-dihydro-6H-pyrimido [5,4-b] [1, 4]oxazin-7-yl) methanol]: the IC50 is 1240 nM.
Consider `COc1cc(Nc2ncc3c(n2)N(C)C(c2cc(F)cc(F)c2)CO3)cnc1-n1cnc(C)c1` (single isomer, unassigned; (-)) [Example 189B], for which the IC50 stood at 655 nM.
As for `Cc1cn(-c2ccc(Nc3ncc4c(n3)N(C)C(c3ccc(F)cc3F)CO4)cc2F)cn1` (single isomer, unassigned; (+)) [Example 69A], the IC50 is 69 nM.
With `Cc1cn(-c2ccc(Nc3ncc4c(n3)N(C)C(c3ccc(Cl)cc3C(F)(F)F)CO4)cc2F)cn1` (single isomer, unassigned; (-)) [Example 106B] the figure was 1020 nM; with `Cc1cn(-c2ccc(Nc3ncc4c(n3)N(C)C(c3cc(F)c(F)cc3C(F)(F)F)CO4)cc2F)cn1` (single isomer, unassigned) [Example 198B], 101 nM; with `COc1cc(Nc2ncc3c(n2)N(C)[C@H](CO)CO3)ccc1-n1cnc(C)c1` [Example 177, (R)-(2-((3-methoxy-4-(4-methyl-1H-imidazol-1-yl)phenyl)amino)-8-methyl-7,8-dihydro-6H-pyrimido [5,4-b] [1, 4]oxazin-7-yl) methanol], 262 nM.
Regarding `Cc1cn(-c2ncc(Nc3ncc4c(n3)N(C)C(c3cc(F)cc(F)c3)CO4)cc2Cl)cn1` (single isomer, unassigned; (-)) [Example 210B], the IC50 was 2340 nM.
For `COc1cc(Nc2ncc3c(n2)N(C)C(c2cc(F)cc(F)c2)CO3)cnc1-n1cnc(C)c1` (single isomer, unassigned; (+)) [Example 189A], the IC50 was 13 nM.
With `Cc1cc(-c2ccc(Nc3ncc4c(n3)N(C)C(c3ccccc3C)CO4)cc2F)ccn1` (single isomer, unassigned; (+)) [Example 32B] the figure was 131 nM; with `Cc1cc(-c2ccc(Nc3ncc4c(n3)N(C)C(c3ccccc3C)CO4)cc2)ccn1` (single isomer, unassigned; (+)) [Example 29B], 68 nM; with `Cc1cn(-c2ccc(Nc3ncc4c(n3)N(C)C(C3CCOCC3)CO4)cc2F)cn1` (single isomer, unassigned; (+)) [Example 109A], 212 nM.
The same measure for `Cc1cn(-c2ccc(Nc3ncc4c(n3)N(C)C(C)(C)CO4)cc2F)cn1` [Example 255]: 488 nM; for `COc1cc(Nc2ncc3c(n2)N(C)[C@@H](C2CC2)CO3)ccc1-n1cnc(C)c1` [Example 224]: 22 nM; for `Cc1cc(-c2ccc(Nc3ncc4c(n3)N(C)C(c3ccccc3C)CO4)cc2)ccn1` (racemic) [Example 29]: 297 nM.
For `COc1cc(Nc2ncc3c(n2)N(C)C(c2cc(F)cc(F)c2)CO3)ccc1-n1cnc(C)c1` (single isomer, unassigned; (-)) [Example 30A], the IC50 stood at 177 nM.
With `COc1cc(Nc2ncc3c(n2)N(C)[C@H](c2ccccc2)CO3)ccc1-n1cnc(C)c1` [Example 22A, (R)—N-(3-methoxy-4-(4-methyl-1H-imidazol-1-yl)phenyl)-8-methyl-7-phenyl-7,8-dihydro-6H-pyrimido[5,4-b][1,4]oxazin-2-amine], the IC50 turned out to be 87 nM.
With `Cc1cn(-c2ccc(Nc3ncc4c(n3)N3CCCC3CO4)cc2F)cn1` (single isomer, unassigned; (-)) [Example 289B] the figure was 157 nM; with `COc1cc(Nc2ncc3c(n2)N(C)C(c2ccccc2OC(F)(F)F)CO3)ccc1-c1ccnc(C)c1` (single isomer, unassigned; (+)) [Example 62B], 165 nM.
In the case of `COc1cc(Nc2ncc3c(n2)N(C)C2(CC2)CO3)cnc1-n1cnc(C)c1` [Example 260], the IC50 came to 213 nM.
With `COc1nc(Nc2ncc3c(n2)N(C)C(c2cc(F)cc(F)c2)CO3)ccc1-c1cnn(C)c1` (single isomer, unassigned; (-)) [Example 184A] the figure was above 3000 nM; with `COc1cc(Nc2ncc3c(n2)N(C)[C@@H](COc2ccccc2)CO3)ccc1-n1cnc(C)c1` [Example 200], 30 nM; with `Cc1cn(-c2ccc(Nc3ncc4c(n3)N(C)C(c3ccc(Cl)cc3Cl)CO4)cc2F)cn1` (single isomer, unassigned; (-)) [Example 96B], 879 nM.
Regarding `COc1cc(Nc2ncc3c(n2)N(C)C(Cc2ccccc2)CO3)ccc1-n1cnc(C)c1` (single isomer, unassigned; (+)) [Example 47A], the IC50 was 23 nM.
The same measure for `COc1cc(Nc2ncc3c(n2)N(C)C(C)CO3)ncc1-n1cnc(C)c1` (racemic) [Example 234]: 1770 nM.
Turning to `COc1cc(Nc2ncc3c(n2)N2CCCC2CO3)ccc1-n1cnc(C)c1` (single isomer, unassigned; (-)) [Example 290A, (−)-N-(3-methoxy-4-(4-methyl-1H-imidazol-1-yl)phenyl)-6a, 7,8,9-tetrahydro-6H-pyrimido [5,4-b] pyrrolo [1,2-d] [1, 4] oxazin-2-amine], the IC50 stood at 71 nM.
Take `Cc1cn(-c2ccc(Nc3ncc4c(n3)N(C)C(c3ccccc3)CO4)cc2)cn1` (single isomer, unassigned; (-)) [Example 26B]: the IC50 came to 3140 nM.
As to `Cc1cc(-c2ccc(Nc3ncc4c(n3)N(C)C(c3ccccc3)CO4)cc2F)ccn1` (racemic) [Example 27], the IC50 worked out at 374 nM.
